Literature values in US20220054380A1, “CANN[…] ESTERS FOR COSMETIC OR EDIBLE COMPOSITIONS” (EPM (IP), Inc., priority 2018, published 2022).

Assays:
rats [1] = settings: compared with CBDA, 5-HT1A receptor-dependent
rats [2] = settings: oral ingestion, low dose (1 mg/kg), two rat models
rats [3] = settings: compared with CBDA, 5-HT1A receptor-dependent; remark: listed apart in the source

Compound: C=C(C)C1CCC(C)=C[C@H]1c1c(O)cc(CCCCC)c(C(=O)OC)c1O (stereo partly drawn) [HU-580, Cannabidiolic Acid Methyl Ester]
- potency at suppressing signs of stress-induced anxiety (rats [1]): greater potency than CBDA
- anti-depressant effect (rats [2]): potent anti-depressant effect
- potency at suppressing signs of acute and anticipatory nausea (rats [3]): greater potency than CBDA
